One data set has as its system ICR mouse. Nature of the data set: Animal test: blood glucose after oral glucose load in mice dosed by oral gavage. In kind it is in vivo. The conditions noted are these: for response versus vehicle control (negative group), p<0.05 / Means at 20 min. (mean value of glucose level at 20 min. minus glucose level at time zero, before glucose dosing) / blood glucose level as compared with the Vehicle group during the test period (FIG. 5): ICR mouse; for response versus vehicle control (negative group), p<0.05: Metformin Hydrochloride 150 mg/kg, Compound 2 525 and 1050 mg/kg; for Means at 20 min. (mean value of glucose level at 20 min. minus glucose level at time zero, before glucose dosing): 1.5 g/kg glucose 30 min after dosing, in mg/dL; for blood glucose level as compared with the Vehicle group during the test period (FIG. 5): oral gavage, doses as in Table 1. As for the experimental part:
Approximately 7-9-week-old ICR mouse were purchased from BioLASCO Taiwan Co., Ltd (Taipei, Taiwan).
Linear analysis of the glucose monitoring system: eight concentrations (0, 50, 100, 200, 300, 400, 500, 600 mg/dL) of glucose solution were determined duplicate. The animals were fasted approximately 4 hours before dosing. Then, the animals were administered with the test compounds via oral gavage. After 30 minutes of the test compound dosed, the animals were administered with 1.5 g/kg glucose solution (Concentration: 0.15 g/mL, Dose volume: 10 mL/kg) via oral gavage. The blood glucose was determined before the test compound dosing, before glucose dosing, and after glucose dosing in 5, 15, 20, 25, 30, 40 and 50 minutes.
The results were expressed as means and the statistical significance was evaluated by analysis of variance (ANOVA) followed by least significance difference post hoc test. A level of p<0.05 was considered statistically significant.

For data set [1] the following is noted: following oral administration; cited from earlier work.

Counter-ions that a name gives are not always drawn.

`COC(=O)CC[C@@H](C)[C@H]1CC[C@H]2[C@@H]3[C@H](O)C[C@@H]4C[C@H](OC(=O)NC(=N)NC(=N)N(C)C)CC[C@]4(C)[C@H]3C[C@H](O)[C@]12C` [Compound 2]: in the data set with ICR mouse, the “response versus vehicle control (negative group), p<0.05” value was “significantly different” and the “blood glucose level as compared with the Vehicle group during the test period (FIG. 5)” value was “lowered”. Moreover, the “Means at 20 min. (mean value of glucose level at 20 min. minus glucose level at time zero, before glucose dosing)” value in the data set on ICR mouse (Test 1, 525 mg/kg oral gavage) is given as 225.8. Besides, in the data set on ICR mouse (Test 2, 1050 mg/kg oral gavage), the “Means at 20 min. (mean value of glucose level at 20 min. minus glucose level at time zero, before glucose dosing)” value was 225.8. Moreover, the “effect on hyperglycemia in terms of efficacy in lowering blood glucose in animals” value in the data set on ICR mouse (summary of Example 3) was “improved hyperglycemia”.
For the compound `CN(C)C(=N)N=C(N)N` [Metformin Hydrochloride], the “Means at 20 min. (mean value of glucose level at 20 min. minus glucose level at time zero, before glucose dosing)” value with ICR mouse (150 mg/kg oral gavage) amounted to 125.4. In the data set with ICR mouse, the “response versus vehicle control (negative group), p<0.05” value is listed as “significantly different” and the “blood glucose level as compared with the Vehicle group during the test period (FIG. 5)” value is reported as “lowered”.
For `CN(C)C(=N)NC(=N)N` [Metformin, N,N-dimethylimidodicarbonimidic diamide], in data set [1], the “absorbed drug eliminated via the renal route within the first 24 hours” value is reported as “approximately 90%”. For the same compound, in the data set on ICR mouse, the “response versus vehicle control (negative group), p<0.05” value is recorded as “significantly different”.

The values above are taken from patent US8741882B2, “Anti-diabetic compounds” (Sen Capital, LLC., priority 2012, dated 2014).
